The target in the assay is Mcl-1 protein (UniProtKB Q07820) (Homo sapiens (Human), UniProt Q07820). Put plainly: Inhibition of Mcl-1 by the fluorescence polarisation assay (Example A, Method A). The following applies: fluorescence polarization assay. It counts as binding. The gist of the method:
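Protein (5 nM) and fluorescein-tagged peptide tracer (1 nM) incubated with 11-point compound series for 2 h at room temperature in HEPES/NaCl/Tween 20 buffer, pH 7.4, 5% DMSO. Displacement read as decrease in polarisation; IC50 fitted by 4-parameter logistic, converted to Ki (cKi or eKi).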

Chain of Mcl-1 protein (Q07820 whole entry): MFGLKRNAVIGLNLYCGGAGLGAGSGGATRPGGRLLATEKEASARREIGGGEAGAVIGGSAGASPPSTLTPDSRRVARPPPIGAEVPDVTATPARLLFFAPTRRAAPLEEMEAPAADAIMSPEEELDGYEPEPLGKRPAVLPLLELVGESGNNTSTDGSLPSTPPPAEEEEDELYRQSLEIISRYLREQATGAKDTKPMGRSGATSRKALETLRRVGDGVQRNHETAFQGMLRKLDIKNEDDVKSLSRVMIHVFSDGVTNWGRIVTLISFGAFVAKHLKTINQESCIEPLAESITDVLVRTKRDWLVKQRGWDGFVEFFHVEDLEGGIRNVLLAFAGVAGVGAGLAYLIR

On to `O=C(O)[C@]1(Nc2cccc(Cl)c2)CC[C@@]2(CC1)c1ccccc1CC2c1cccc(Oc2cccnc2)c1` (single isomer, unassigned) [Example 374, (1r,4r)-4-(3-chloroanilino)-2′-{3-[(pyridin-3-yl)oxy]phenyl}-2′,3′-dihydrospiro[cyclohexane-1,1′-indene]-4-carboxylic acid], for which the Ki is 0.189 µM. The value for `O=C(O)[C@]1(Nc2cccc(Cl)c2)CC[C@@]2(CC1)c1ccccc1CC2c1cccc(Oc2ccncc2)c1` (single isomer, unassigned) [Example 376, (1r,4r)-4-(3-chloroanilino)-2′-{3-[(pyridin-4-yl)oxy]phenyl}-2′,3′-dihydrospiro[cyclohexane-1,1′-indene]-4-carboxylic acid] was 0.267 µM. The value for `COc1ccc2c(c1)[C@]1(CC[C@@](Nc3cccc(Cl)c3)(C(=O)O)CC1)C(c1cccc(Oc3ccccc3)c1)C2` (single isomer, unassigned) [Example 379, (1r,4r)-4-(3-chloroanilino)-6′-methoxy-2′-(3-phenoxyphenyl)-2′,3′-dihydrospiro[cyclohexane-1,1′-indene]-4-carboxylic acid] was 3.1 µM. The figure for `CN(CCc1ccncc1)C(=O)C1Cc2ccccc2[C@]12CC[C@@](Nc1cccc(Cl)c1)(C(=O)O)CC2` (single isomer, unassigned) [Example 404, (1r,4r)-4-(3-chloroanilino)-2′-{methyl[2-(pyridin-4-yl)ethyl]carbamoyl}-2′,3′-dihydrospiro[cyclohexane-1,1′-indene]-4-carboxylic acid] is 7.78 µM; for `O=C(NCCc1ccccc1)C1Cc2ccccc2[C@]12CC[C@@](Nc1cccc(Cl)c1)(C(=O)O)CC2` (single isomer, unassigned) [Example 405, (1r,4r)-4-(3-chloroanilino)-2′-[(2-phenylethyl)carbamoyl]-2′,3′-dihydrospiro[cyclohexane-1,1′-indene]-4-carboxylic acid] it is 15.2 µM. On to `O=C(NCCc1ccccc1)C1Cc2ccccc2[C@]12CC[C@@](Nc1cccc(Cl)c1)(C(=O)O)CC2` (single isomer, unassigned) [Example 406, (1r,4r)-4-(3-chloroanilino)-2′-[(2-phenylethyl)carbamoyl]-2′,3′-dihydrospiro[cyclohexane-1,1′-indene]-4-carboxylic acid], for which the Ki was 6.17 µM.

In the case of `CN(CCc1ccccc1)C(=O)C1Cc2ccccc2[C@]12CC[C@@](Nc1cccc(Cl)c1)(C(=O)O)CC2` (single isomer, unassigned) [Example 407, (1r,4r)-4-(3-chloroanilino)-2′-[methyl(2-phenylethyl)carbamoyl]-2′,3′-dihydrospiro[cyclohexane-1,1′-indene]-4-carboxylic acid], the Ki was 1.37 µM.

`CN(CCc1ccccc1)C(=O)C1Cc2ccccc2[C@]12CC[C@@](Nc1cccc(Cl)c1)(C(=O)O)CC2` (single isomer, unassigned) [Example 408, (1r,4r)-4-(3-chloroanilino)-2′-[methyl(2-phenylethyl)carbamoyl]-2′,3′-dihydrospiro[cyclohexane-1,1′-indene]-4-carboxylic acid]: the Ki was determined as 4.27 µM. The figure for `O=C(O)[C@]1(Nc2cccc(Cl)c2)CC[C@@]2(CC1)c1ccccc1CC2CC(COCCN1CCOCC1)COc1ccnc2c1CCC2` (single isomer, unassigned) [Example 495, (1r,4r)-4-(3-chloroanilino)-2′-(2-{[(6,7-dihydro-5H-cyclopenta[b]pyridin-4-yl)oxy]methyl}-3-[2-(morpholin-4-yl)ethoxy]propyl)-2′,3′-dihydrospiro[cyclohexane-1,1′-indene]-4-carboxylic acid] is 0.0114 µM; for `CC(C)C(COc1ccncc1)CC1Cc2ccccc2[C@]12CC[C@@](Nc1cccc(Cl)c1)(C(=O)O)CC2` (single isomer, unassigned) [Example 534, (1r,4r)-4-(3-chloroanilino)-2′-(3-methyl-2-{[(pyridin-4-yl)oxy]methyl}butyl)-2′,3′-dihydrospiro[cyclohexane-1,1′-indene]-4-carboxylic acid] it is 1.52 µM.

Consider `CC1CCc2nccc(OC[C@H](C)CC3Cc4ccccc4[C@]34CC[C@@](Nc3cccc(Cl)c3)(C(=O)O)CC4)c21` (single isomer, unassigned) [Example 601], for which the inhibition constant (Ki) was 0.0328 µM.

On to `O=C(O)[C@]1(Nc2cccc(Br)c2)CC[C@@]2(CC1)C(=O)Nc1ccccc12` [Example 1, (1r,4r)-4-(3-bromoanilino)-2′-oxo-1′,2′-dihydrospiro[cyclohexane-1,3′-indole]-4-carboxylic acid], for which the Ki is 23.3 µM. For the compound `CCN1c2ccccc2[C@]2(CC[C@](Nc3cccc(Br)c3)(C(=O)O)CC2)C1=O` [Example 2, (1r,4r)-4-(3-bromoanilino)-1′-ethyl-2′-oxo-1′,2′-dihydrospiro[cyclohexane-1,3′-indole]-4-carboxylic acid], the inhibitory constant (Ki) is 7.67 µM.

For `O=C(O)C1(Nc2cccc(Br)c2)CCC2(CC1)CNc1ccccc12` (stereo not drawn) [Example 3, 4-(3-bromoanilino)-1′,2′-dihydrospiro[cyclohexane-1,3′-indole]-4-carboxylic acid], the inhibitory constant (Ki) was 12.8 µM. The figure for `CN1CC2(CCC(Nc3cccc(Br)c3)(C(=O)O)CC2)c2ccccc21` (stereo not drawn) [Example 4, 4-(3-bromoanilino)-1′-methyl-1′,2′-dihydrospiro[cyclohexane-1,3′-indole]-4-carboxylic acid] is 5.95 µM; for `CN1c2ccc(I)cc2[C@]2(CC[C@](Nc3cccc(Br)c3)(C(=O)O)CC2)C1=O` [Example 5, (1r,4r)-4-(3-bromoanilino)-5′-iodo-1′-methyl-2′-oxo-1′,2′-dihydrospiro[cyclohexane-1,3′-indole]-4-carboxylic acid] it is 22 µM; for `CN1c2ccc(Br)cc2[C@]2(CC[C@](Nc3cccc(Br)c3)(C(=O)O)CC2)C1=O` [Example 6, (1r,4r)-5′-bromo-4-(3-bromoanilino)-1′-methyl-2′-oxo-1′,2′-dihydrospiro[cyclohexane-1,3′-indole]-4-carboxylic acid] it is 9.91 µM. `Cc1ccc2c(c1)[C@]1(CC[C@](Nc3cccc(Br)c3)(C(=O)O)CC1)C(=O)N2C` [Example 7, (1r,4r)-4-(3-bromoanilino)-1′,5′-dimethyl-2′-oxo-1′,2′-dihydrospiro[cyclohexane-1,3′-indole]-4-carboxylic acid]: the Ki came to 23.8 µM.

Turning to `CCc1ccc2c(c1)[C@]1(CC[C@](Nc3cccc(Br)c3)(C(=O)O)CC1)C(=O)N2C` [Example 8, (1r,4r)-4-(3-bromoanilino)-5′-ethyl-1′-methyl-2′-oxo-1′,2′-dihydrospiro[cyclohexane-1,3′-indole]-4-carboxylic acid], the Ki came to 22.5 µM. As for `CN1c2ccc(/C=C/c3ccccc3)cc2[C@]2(CC[C@](Nc3cccc(Br)c3)(C(=O)O)CC2)C1=O` [Example 9, (1r,4r)-4-(3-bromoanilino)-1′-methyl-2′-oxo-5′-[(E)-2-phenylethenyl]-1′,2′-dihydrospiro[cyclohexane-1,3′-indole]-4-carboxylic acid], the inhibition constant Ki came to 4.82 µM. The value for `CN1c2ccc(-c3ccccc3)cc2[C@]2(CC[C@](Nc3cccc(Br)c3)(C(=O)O)CC2)C1=O` [Example 10, (1r,4r)-4-(3-bromoanilino)-1′-methyl-2′-oxo-5′-phenyl-1′,2′-dihydrospiro[cyclohexane-1,3′-indole]-4-carboxylic acid] was 10.7 µM.
